Measured values reported in US9695192B2, “Fused heterocyclic compounds as ion channel modulators” (GILEAD SCIENCES, INC., priority 2011, dated 2017).
Where two headings read alike, the source gives them in different places.

Experiments:
[1] = molecular target: wild-type human cardiac sodium channel, hNav1.5 (Homo sapiens, UniProt Q14524); assay: Late INa screening assay (QPatch whole cell patch clamp, tefluthrin-enhanced late sodium current); type: cell-based; conditions: HEK293 hNav1.5, late INa activated with 10 μM Tefluthrin
Method: The late sodium current (Late INa) and peak sodium current (Peak INa) assays are performed on an automated electrophysiology platform, QPatch 16X (Sophion Bioscience, Copenhagen, Denmark), which uses the whole cell patch clamp technique to measure currents through the cell membrane of up to 16 cells at a time. The assay uses an HEK293 (human embryonic kidney) cell line heterologously expressing the wild-type human cardiac sodium channel, hNav1.5, purchased from Millipore (Billerica, Mass.). No beta subunits were coexpressed with the Na channel alpha subunit. Cells are maintained with standard tissue culture procedures and stable channel expression is maintained with 400 μg/mL Geneticin in the culture medium. Cells isolated for use on QPatch are incubated for 5 minutes in Detachin 1X (Genlantis, San Diego, USA) at 37° C. to ensure that 80-90% of the cells are single and not part of a cell cluster. Experiments are carried out at 23-25° C.
For both the Late INa and Peak INa assays, series resistance compensation is set to 100% and series resistance and whole-cell compensation are performed automatically. Currents are digitized at 25 kHz and low-pass filtered at 12 kHz and 10 kHz for the late and peak INa assays, respectively. Currents through open sodium channels are automatically recorded and stored in the Sophion Bioscience Oracle database (Sophion Bioscience, Copenhagen, Denmark). Analysis is performed using QPatch Assay and database software and data are compiled in Excel.
Compound stocks are routinely made by the Gilead Sample Bank in plastic vials to 10 mM in dimethyl sulfoxide (DMSO). In some cases, when compounds are not soluble in DMSO, they are made in 100% ethanol. Stocks are sonicated as necessary. The extracellular solution for screening Late INa is composed of: 140 mM NaCl, 4 mM KCl, 1.8 mM CaCl2, 0.75 mM MgCl2 and 5 mM HEPES with pH adjusted to 7.4 using NaOH. The intracellular solution used to perfuse the inside of the cells for both the Late INa and Peak INa assays contains: 120 mM CsF, 20 mM CsCl, 5 mM EGTA, 5 mM HEPES and pH adjusted to 7.4 with CsOH. Compounds are diluted in extracellular solution to 1 μM in glass vials and then transferred to glass well plates before robotic addition to the cells. A 0 mM Na extracellular solution (0 Na-ECF) is used at the end of each experiment for the Late INa and Peak INa assays to measure baseline current contains: 140 mM N-methyl-D-glucamine; 4 mM KCl; 1.8 mM CaCl2; 0.75 mM MgCl2; 5 mM HEPES and pH was adjusted to 7.4 with HCl.
For the hNav1.5 Late INa assay, sodium channels are activated every 10 seconds (0.1 Hz) by depolarizing the cell membrane to −20 mV for 250 milliseconds (ms) from a holding potential of −120 mV. In response to a −20 mV voltage step, typical hNav1.5 sodium currents activate rapidly to a peak negative current and then inactivate nearly completely within 3-4 ms.
Compounds were tested to determine their activity in blocking the late sodium current. Late INa was generated by adding 10 μM Tefluthrin (pyrethroid) to the extracellular solution while recording Na currents. To confirm the block of late INa observed using the automated screening method, a second late INa enhancer (ATX-II) and the manual patch clamp method were used. ATX-II and tefluthrin occupy distinct, non-overlapping binding sites and modify Na^+ channel function differently to increase late INa. Compounds tested have been found generally to inhibit the enhanced late INa caused by either late INa enhancer. For the purposes of the screening, late INa is defined as the mean current between 225 ms and 250 ms after stepping to −20 mV to activate Na channels. After establishing the whole cell recording configuration, late INa activator is added to each well 4 times over a 16-17 minute period so that the late component of the Na current reaches a stable value. Compounds were then added (typically at 1 μM), in the presence of the late INa activator, with 3 additions over the course of 7 or 8 minutes. […]

hNav1.5 Peak INa = hNav1.5 Peak INa (Homo sapiens, UniProt Q14524); assay: Peak INa screening assay (tonic block and use-dependent block); type: cell-based
Method: The assay uses an HEK293 (human embryonic kidney) cell line heterologously expressing the wild-type human cardiac sodium channel, hNav1.5, purchased from Millipore (Billerica, Mass.). No beta subunits were coexpressed with the Na channel alpha subunit. Cells are maintained with standard tissue culture procedures and stable channel expression is maintained with 400 μg/mL Geneticin in the culture medium. […] Experiments are carried out at 23-25° C. […] Currents through open sodium channels are automatically recorded and stored in the Sophion Bioscience Oracle database (Sophion Bioscience, Copenhagen, Denmark). Analysis is performed using QPatch Assay and database software and data are compiled in Excel. Compound stocks are routinely made by the Gilead Sample Bank in plastic vials to 10 mM in dimethyl sulfoxide (DMSO). […] Stocks are sonicated as necessary. […] Compounds are diluted in extracellular solution to 1 μM in glass vials and then transferred to glass well plates before robotic addition to the cells. […] Good separation between the concentrations of test compound to reduce late and peak INa is beneficial to enable separation of the desired effect to reduce late INa-induced electrical and mechanical dysfunction from the undesired effect to reduce peak INa, which can lead to slowing or block of conduction of electrical excitation in the heart. It is contemplated that the compounds of Formula I avoid significant block of peak INa. […] Analysis of peak INa generally requires correction for rundown before determining the % block of peak current by the tested compound. […] Use-dependent block refers to the accumulation of block with increased frequency of channel activation. […] It is therefore expected that reduction of peak INa by compounds of this disclosure will be greater at high heart rates, such as those during tachyarrhythmias, than at normal heart rates. […] The intracellular solution used for the Peak INa assay is the same as outlined for the Late INa assay (see above). […] After establishing the whole cell recording configuration, channels were stimulated to open with low frequency stimulation (0.1 Hz) for 7 minutes so that the recording can be monitored and the extent to which the recording has stabilized can be assessed. […] Both TB and UDB were analyzed by incorporating rundown correction for the peak INa and UDB as calculated by compensating for the small use-dependent effect of the stimulation protocol on peak INa in the absence of compound.

[2] = at 1 μM, 3 Hz stimulation, holding potential −100 mV, read-out: Peak UDB (use-dependent block of peak INa) % Inhibition
[3] = read-out: Peak TB (tonic block of peak INa) % Inhibition

wild-type human cardiac sodium channel, hNav1.5, sequence (Q14524 whole entry): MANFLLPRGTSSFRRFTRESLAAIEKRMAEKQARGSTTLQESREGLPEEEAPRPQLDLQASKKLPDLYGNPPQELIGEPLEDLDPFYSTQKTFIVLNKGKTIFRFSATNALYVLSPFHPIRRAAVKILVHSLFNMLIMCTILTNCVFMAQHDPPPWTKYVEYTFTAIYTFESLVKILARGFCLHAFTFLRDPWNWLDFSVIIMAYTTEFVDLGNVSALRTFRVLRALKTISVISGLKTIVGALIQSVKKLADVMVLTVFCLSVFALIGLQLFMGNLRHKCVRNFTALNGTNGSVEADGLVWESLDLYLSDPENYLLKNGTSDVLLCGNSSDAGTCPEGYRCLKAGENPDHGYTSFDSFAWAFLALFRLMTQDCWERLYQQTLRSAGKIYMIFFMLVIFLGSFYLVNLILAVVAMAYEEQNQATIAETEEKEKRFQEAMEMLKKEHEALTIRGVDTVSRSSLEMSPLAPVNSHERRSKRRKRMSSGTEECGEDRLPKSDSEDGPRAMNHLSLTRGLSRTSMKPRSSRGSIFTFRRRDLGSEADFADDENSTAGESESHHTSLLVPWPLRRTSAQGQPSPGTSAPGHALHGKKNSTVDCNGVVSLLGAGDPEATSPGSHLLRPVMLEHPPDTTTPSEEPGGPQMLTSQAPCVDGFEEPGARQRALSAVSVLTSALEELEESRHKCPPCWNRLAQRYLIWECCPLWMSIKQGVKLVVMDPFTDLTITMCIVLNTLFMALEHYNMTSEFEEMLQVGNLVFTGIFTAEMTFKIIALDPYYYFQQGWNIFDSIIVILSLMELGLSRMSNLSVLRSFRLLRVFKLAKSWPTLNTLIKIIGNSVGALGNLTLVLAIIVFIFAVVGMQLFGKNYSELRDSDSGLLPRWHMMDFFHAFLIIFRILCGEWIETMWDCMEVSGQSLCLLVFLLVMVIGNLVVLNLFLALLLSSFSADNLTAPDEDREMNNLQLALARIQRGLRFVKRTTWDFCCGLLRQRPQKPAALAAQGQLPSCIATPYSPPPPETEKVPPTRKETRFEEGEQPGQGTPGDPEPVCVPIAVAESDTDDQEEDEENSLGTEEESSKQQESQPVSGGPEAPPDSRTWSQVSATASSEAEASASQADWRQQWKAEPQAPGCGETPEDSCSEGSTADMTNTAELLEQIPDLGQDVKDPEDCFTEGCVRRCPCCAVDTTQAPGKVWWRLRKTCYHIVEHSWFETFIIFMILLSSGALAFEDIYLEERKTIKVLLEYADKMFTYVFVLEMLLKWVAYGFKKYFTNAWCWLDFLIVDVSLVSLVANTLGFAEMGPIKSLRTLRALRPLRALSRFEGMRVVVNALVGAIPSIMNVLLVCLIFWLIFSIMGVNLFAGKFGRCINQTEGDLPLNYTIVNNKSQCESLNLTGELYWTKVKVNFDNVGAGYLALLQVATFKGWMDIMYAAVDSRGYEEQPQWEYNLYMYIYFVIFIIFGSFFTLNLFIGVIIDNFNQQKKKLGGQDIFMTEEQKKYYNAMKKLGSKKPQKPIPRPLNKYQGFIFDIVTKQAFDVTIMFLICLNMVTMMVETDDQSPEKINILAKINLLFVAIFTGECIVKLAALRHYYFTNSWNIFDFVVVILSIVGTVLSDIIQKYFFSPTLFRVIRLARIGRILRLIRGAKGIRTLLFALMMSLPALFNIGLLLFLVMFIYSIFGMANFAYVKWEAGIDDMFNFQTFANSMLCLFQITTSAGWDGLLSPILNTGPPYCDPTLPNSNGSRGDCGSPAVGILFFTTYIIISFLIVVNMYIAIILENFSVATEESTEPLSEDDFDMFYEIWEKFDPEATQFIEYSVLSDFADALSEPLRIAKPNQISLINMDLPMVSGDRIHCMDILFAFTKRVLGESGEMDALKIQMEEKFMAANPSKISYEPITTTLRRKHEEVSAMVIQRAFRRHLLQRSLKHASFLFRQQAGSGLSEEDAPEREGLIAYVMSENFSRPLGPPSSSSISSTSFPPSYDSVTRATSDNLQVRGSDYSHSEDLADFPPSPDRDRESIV
hNav1.5 Peak INa, sequence (Q14524 whole entry): as above

## FC(F)(F)c1ccc(-c2ccc3c(c2)C(N2CCC(c4ccccn4)C2)=NCCO3)cc1 (centres unmarked) [II-60, 5-(3-(pyridin-2-yl)pyrrolidin-1-yl)-7-(4-(trifluoromethyl)phenyl)-2,3-dihydrobenzo[f][1,4]oxazepine]
[1]
  inhibition at 1 µM: 42%
hNav1.5 Peak INa; [2]
  inhibition at 1 µM: 25%
hNav1.5 Peak INa; [3]
  inhibition at 1 µM: 10%

## CC(C)(C)OC(=O)N1CCC(NC2=NCCOc3ccc(-c4ccc(C(F)(F)F)cc4)cc32)C1 (centres unmarked) [II-62, tert-butyl 3-(7-(4-(trifluoromethyl)phenyl)-2,3-dihydrobenzo[f][1,4]oxazepin-5-ylamino)pyrrolidine-1-carboxylate]
[1]
  inhibition at 1 µM: 43%
hNav1.5 Peak INa; [2]
  inhibition at 1 µM: 32%
hNav1.5 Peak INa; [3]
  inhibition at 1 µM: 8%

## CC(C)(C)OC(=O)N1CC[C@@H](NC2=NCCOc3ccc(-c4ccc(C(F)(F)F)cc4)cc32)C1 [II-63, (R)-tert-butyl 3-(7-(4-(trifluoromethyl)phenyl)-2,3-dihydrobenzo[f][1,4]oxazepin-5-ylamino)pyrrolidine-1-carboxylate]
[1]
  inhibition at 1 µM: 51%
hNav1.5 Peak INa; [2]
  inhibition at 1 µM: 31%
hNav1.5 Peak INa; [3]
  inhibition at 1 µM: 12%

## FC(F)(F)c1ccc(-c2ccc3c(c2)C(NCC2CC2)=NCCO3)cc1 [II-11, N-(cyclopropylmethyl)-7-(4-(trifluoromethyl)phenyl)-2,3-dihydrobenzo[f][1,4]oxazepin-5-amine]
[1]
  inhibition at 1 µM: 41%
hNav1.5 Peak INa; [2]
  inhibition at 1 µM: 31%
hNav1.5 Peak INa; [3]
  inhibition at 1 µM: 11%

## FC(F)(F)c1ccc(-c2ccc3c(c2)C(NCCOc2ccccc2)=NCCO3)cc1 [II-22, N-(2-phenoxyethyl)-7-(4-(trifluoromethyl)phenyl)-2,3-dihydrobenzo[f][1,4]oxazepin-5-amine]
[1]
  inhibition at 1 µM: 60%
hNav1.5 Peak INa; [2]
  inhibition at 1 µM: 69%
hNav1.5 Peak INa; [3]
  inhibition at 1 µM: 19%

## CN(C)[C@H]1CCN(C2=NCCOc3ccc(-c4ccc(C(F)(F)F)cc4)cc32)C1 [II-15, (S)—N,N-dimethyl-1-(7-(4-(trifluoromethyl)phenyl)-2,3-dihydrobenzo[f][1,4]oxazepin-5-yl)pyrrolidin-3-amine]
[1]
  inhibition at 1 µM: 49%
hNav1.5 Peak INa; [2]
  inhibition at 1 µM: 27%
hNav1.5 Peak INa; [3]
  inhibition at 1 µM: 16%

## CC(C)(C)OC(=O)N1CC[C@H](NC2=NCCOc3ccc(-c4ccc(C(F)(F)F)cc4)cc32)C1 [II-43, (S)-tert-butyl 3-(7-(4-(trifluoromethyl)phenyl)-2,3-dihydrobenzo[f][1,4]oxazepin-5-ylamino)pyrrolidine-1-carboxylate]
[1]
  inhibition at 1 µM: 46%
hNav1.5 Peak INa; [2]
  inhibition at 1 µM: 31%
hNav1.5 Peak INa; [3]
  inhibition at 1 µM: 12%

## N[C@@H]1CCN(C2=NCCOc3ccc(-c4ccc(C(F)(F)F)cc4)cc32)C1 [II-41, (R)-1-(7-(4-(trifluoromethyl)phenyl)-2,3-dihydrobenzo[f][1,4]oxazepin-5-yl)pyrrolidin-3-amine]
[1]
  inhibition at 1 µM: 6%

## FC(F)(F)c1ccc(-c2ccc3c(c2)C(NCCOc2ccccn2)=NCCO3)cc1 [II-20, N-(2-(pyridin-2-yloxy)ethyl)-7-(4-(trifluoromethyl)phenyl)-2,3-dihydrobenzo[f][1,4]oxazepin-5-amine]
[1]
  inhibition at 1 µM: 59%
hNav1.5 Peak INa; [2]
  inhibition at 1 µM: 89%
hNav1.5 Peak INa; [3]
  inhibition at 1 µM: 30%

## O=C(O)c1cn2c(n1)-c1cc(-c3ccc(C(F)(F)F)cc3)ccc1OCC2 [Compound I-22, 10-(4-(trifluoromethyl)phenyl)-5,6-dihydrobenzo[f]imidazo[1,2-d][1,4]oxazepine-2-carboxylic acid]
[1]
  inhibition at 1 µM: 5%

## CN(C(=O)OC(C)(C)C)[C@H]1CCN(C2=NCCOc3ccc(-c4ccc(C(F)(F)F)cc4)cc32)C1 [II-40, (S)-tert-butyl methyl(1-(7-(4-(trifluoromethyl)phenyl)-2,3-dihydrobenzo[f][1,4]oxazepin-5-yl)pyrrolidin-3-yl)carbamate]
[1]
  inhibition at 1 µM: 18%

## FC(F)(F)c1ccc(-c2ccc3c(c2)C(N2CCC(N4CCOCC4)C2)=NCCO3)cc1 (centres unmarked) [II-55, 5-(3-morpholinopyrrolidin-1-yl)-7-(4-(trifluoromethyl)phenyl)-2,3-dihydrobenzo[f][1,4]oxazepine]
[1]
  inhibition at 1 µM: 18%

## C[C@H]1CN(C(=O)OC(C)(C)C)CCN1C1=NCCOc2ccc(-c3ccc(C(F)(F)F)cc3)cc21 [II-53, (S)-tert-butyl 3-methyl-4-(7-(4-(trifluoromethyl)phenyl)-2,3-dihydrobenzo[f][1,4]oxazepin-5-yl)piperazine-1-carboxylate]
[1]
  inhibition at 1 µM: 2%

## O=C1CCCN1C1CCN(C2=NCCOc3ccc(-c4ccc(C(F)(F)F)cc4)cc32)CC1 [II-42, 1-(1-(7-(4-(trifluoromethyl)phenyl)-2,3-dihydrobenzo[f][1,4]oxazepin-5-yl)piperidin-4-yl)pyrrolidin-2-one]
[1]
  inhibition at 1 µM: 9%

## FC(F)(F)Oc1ccc(-c2ccc3c(c2)-c2ncc(C4CC4)n2CCO3)cc1 [Compound I-18, 3-cyclopropyl-10-(4-(trifluoromethoxy)phenyl)-5,6-dihydrobenzo[f]imidazo[1,2-d][1,4]oxazepine]
[1]
  inhibition at 1 µM: 20%

## FC(F)(F)c1ccc(-c2ccc3c(c2)C(NC2CC2)=NCCO3)cc1 [II-4, N-cyclopropyl-7-(4-(trifluoromethyl)phenyl)-2,3-dihydrobenzo[f][1,4]oxazepin-5-amine]
[1]
  inhibition at 1 µM: 25%

## FC(F)(F)c1ccc(-c2ccc3c(c2)-c2ncc(-c4ncccn4)n2CCO3)cc1 [Compound I-7, 3-(pyrimidin-2-yl)-10-(4-(trifluoromethyl)phenyl)-5,6-dihydrobenzo[f]imidazo[1,2-d][1,4]oxazepine]
[1]
  inhibition at 1 µM: 17%

## O=C1CCCN1C1=NCCOc2ccc(-c3ccc(C(F)(F)F)cc3)cc21 [II-30, 1-(7-(4-(trifluoromethyl)phenyl)-2,3-dihydrobenzo[f][1,4]oxazepin-5-yl)pyrrolidin-2-one]
[1]
  inhibition at 1 µM: 10%

## FC(F)(F)CNC1=NCCOc2ccc(-c3ccc(C(F)(F)F)cc3)cc21 [II-29, N-(2,2,2-trifluoroethyl)-7-(4-(trifluoromethyl)phenyl)-2,3-dihydrobenzo[f][1,4]oxazepin-5-amine]
[1]
  inhibition at 1 µM: 7%
